Measured values as given in patent US20200405697A1, “Antitumor Agent” (Taiho Pharmaceutical Co., Ltd, priority 2017, published 2020).

target: T1, human RNR (histidine tagged human M1 and human M2 proteins) (Homo sapiens, UniProt P23921); experiment: Human RNR inhibition effect (dCDP formation from CDP); assay type: biochemical; details: 10 μM CDP, 37° C. for 30 minutes, read-out: RNR inhibitory activity IC50
T1 construct: made in house; host or cells: Escherichia coli
T1 sequence (P23921 1-792): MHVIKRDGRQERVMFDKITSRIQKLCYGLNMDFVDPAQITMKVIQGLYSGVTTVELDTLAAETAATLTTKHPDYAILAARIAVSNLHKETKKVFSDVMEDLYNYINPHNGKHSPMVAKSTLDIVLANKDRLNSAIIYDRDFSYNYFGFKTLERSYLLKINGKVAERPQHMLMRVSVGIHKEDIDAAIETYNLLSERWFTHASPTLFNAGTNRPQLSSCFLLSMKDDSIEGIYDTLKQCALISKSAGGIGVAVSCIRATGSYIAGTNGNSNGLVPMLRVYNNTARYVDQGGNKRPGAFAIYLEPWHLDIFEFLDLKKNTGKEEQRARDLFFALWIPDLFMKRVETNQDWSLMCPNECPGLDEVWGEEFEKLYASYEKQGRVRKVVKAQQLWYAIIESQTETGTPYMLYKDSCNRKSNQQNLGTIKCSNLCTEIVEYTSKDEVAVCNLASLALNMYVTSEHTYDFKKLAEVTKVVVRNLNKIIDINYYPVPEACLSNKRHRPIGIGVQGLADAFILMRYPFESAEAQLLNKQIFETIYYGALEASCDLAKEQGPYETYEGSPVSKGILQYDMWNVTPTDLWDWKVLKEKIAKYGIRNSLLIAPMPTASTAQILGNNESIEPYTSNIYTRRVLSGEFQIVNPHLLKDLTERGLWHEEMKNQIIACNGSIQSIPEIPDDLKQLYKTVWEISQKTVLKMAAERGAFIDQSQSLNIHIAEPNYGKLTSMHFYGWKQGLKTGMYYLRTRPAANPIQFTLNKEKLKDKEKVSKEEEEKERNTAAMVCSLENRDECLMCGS
Summary of the method: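 His-tagged human M1 (isoform 1) and N-terminal 59-aa-truncated M2 (isoform 2), E. coli-expressed, Ni-purified, preincubated 20 min with compound (1% DMSO). Reaction with 10 μM CDP, 2 mM ATP, 0.24 mM NADPH, 6 mM DTT, 4 mM Mg acetate, 100 mM KCl, 50 mM HEPES pH 7.2, 30 min at 37° C. dCDP formed quantified by reverse-phase HPLC after heat stop.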

Row | IC50 [nM] | SMILES
1 | 990 | Cc1ccc(F)c([C@@H](C)[C@H](NS(=O)(=O)c2ncc(Br)cc2C(=O)O)c2n[nH]c(=O)o2)c1C [Example 214, 5-bromo-2-(N-((1S,2R)-2-(6-fluoro-2,3-dimethylphenyl)-1-(5-oxo-4,5-dihydro-1,3,4-oxadiazol-2-yl)propyl)sulfamoyl)nicotinic acid]
2 | 190 | Cc1ccc(F)c([C@@H](C)[C@H](NS(=O)(=O)c2ccc(Cl)c(C(=O)O)n2)c2n[nH]c(=O)o2)c1C [Example 215, 3-chloro-6-(N-((1S,2R)-2-(6-fluoro-2,3-dimethylphenyl)-1-(5-oxo-4,5-dihydro-1,3,4-oxadiazol-2-yl)propyl)sulfamoyl)picolinic acid]
3 | 200 | COc1c(S(=O)(=O)N[C@H](c2n[nH]c(=O)o2)[C@H](C)c2c(F)ccc(C)c2C)ncc(Cl)c1C(C)O (stereo partly drawn) [Example 216, 5-chloro-N-((1S,2R)-2-(6-fluoro-2,3-dimethylphenyl)-1-(5-oxo-4,5-dihydro-1,3,4-oxadiazol-2-yl)propyl)-4-(1-hydroxyethyl)-3-methoxypyridine-2-sulfonamide]
4 | 960 | Cc1ccc(F)c([C@@H](C)[C@H](NS(=O)(=O)c2cc(F)c(Cl)cc2C(=O)O)c2n[nH]c(=O)o2)c1C [Example 217, 5-chloro-4-fluoro-2-(N-((1S,2R)-2-(6-fluoro-2,3-dimethylphenyl)-1-(5-oxo-4,5-dihydro-1,3,4-oxadiazol-2-yl)propyl)sulfamoyl)benzoic acid]
5 | 270 | Cc1ccc(F)c([C@@H](C)[C@H](NS(=O)(=O)c2c(F)cc(Cl)cc2C(=O)O)c2n[nH]c(=O)o2)c1C [Example 219, 5-chloro-3-fluoro-2-(N-((1S,2R)-2-(6-fluoro-2,3-dimethylphenyl)-1-(5-oxo-4,5-dihydro-1,3,4-oxadiazol-2-yl)propyl)sulfamoyl)benzoic acid]
6 | 790 | Cc1ccc(F)c([C@@H](C)[C@H](NS(=O)(=O)c2cc3c(cc2C(=O)O)OCCO3)c2n[nH]c(=O)o2)c1C [Example 223, 7-(N-((1S,2R)-2-(6-fluoro-2,3-dimethylphenyl)-1-(5-oxo-4,5-dihydro-1,3,4-oxadiazol-2-yl)propyl)sulfamoyl)-2,3-dihydrobenzo[b][1,4]dioxin-6-Carboxylic Acid]
7 | 650 | CC(O)c1cc(S(=O)(=O)N[C@H](c2n[nH]c(=O)o2)[C@H](C)c2cccc3c2CCC3)ccc1Cl (stereo partly drawn) [Example 231, 4-chloro-N-((1S,2R)-2-(2,3-dihydro-1H-inden-4-yl)-1-(5-oxo-4,5-dihydro-1,3,4-oxadiazol-2-yl)propyl)-3-(1-hydroxyethyl)benzensulfonamide]
8 | 230 | Cc1cccc2cccc([C@@H](C)[C@H](NS(=O)(=O)c3ccc(Cl)c4c3OCCC4O)c3n[nH]c(=O)o3)c12 (stereo partly drawn) [Example 232, 5-chloro-4-hydroxy-N-((1S,2R)-2-(8-methylnaphthalene-1-yl)-1-(5-oxo-4,5-dihydro-1,3,4-oxadiazol-2-yl)propyl)chroman-8-sulfonamide]
9 | 130 | C[C@H](c1c(F)ccc2ccccc12)[C@H](NS(=O)(=O)c1ccc(Cl)c2c1OCCC2O)c1n[nH]c(=O)o1 (stereo partly drawn) [Example 233, 5-chloro-N-((1S,2R)-2-(2-fluoronaphthalene-1-yl)-1-(5-oxo-4,5-dihydro-1,3,4-oxadiazol-2-yl)propyl)-4-hydroxychroman-8-sulfonamide]
10 | 380 | Cc1ccc(F)c([C@@H](C)[C@H](NS(=O)(=O)c2ccc(Cl)cc2C(C)O)c2n[nH]c(=O)o2)c1C (stereo partly drawn) [Example 236, 4-chloro-N-((1S,2R)-2-(6-fluoro-2,3-dimethylphenyl)-1-(5-oxo-4,5-dihydro-1,3,4-oxadiazol-2-yl)propyl)-2-(1-hydroxyethyl)benzenesulfonamide]
11 | 910 | Cc1ccc(F)c([C@@H](C)[C@H](NS(=O)(=O)c2ccc(Cl)c3c2C(O)CCC3)c2n[nH]c(=O)o2)c1C (stereo partly drawn) [Example 240, 4-chloro-N-((1S,2R)-2-(6-fluoro-2,3-dimethylphenyl)-1-(5-oxo-4,5-dihydro-1,3,4-oxadiazol-2-yl)propyl)-8-hydroxy-5,6,7,8-tetrahydronaphthalene-1-sulfonamide]
12 | 140 | Cc1ccc(F)c([C@@H](C)[C@H](NS(=O)(=O)c2ccc(F)c3c2OCCC3O)c2n[nH]c(=O)o2)c1C (stereo partly drawn) [Example 241, 5-fluoro-N-((1S,2R)-2-(6-fluoro-2,3-dimethylphenyl)-1-(5-oxo-4,5-dihydro-1,3,4-oxadiazol-2-yl)propyl)-4-hydroxychroman-8-sulfonamide]
13 | 230 | Cc1ccc(F)c([C@@H](C)[C@H](NS(=O)(=O)c2c(F)cc(F)c3c2OCCC3O)c2n[nH]c(=O)o2)c1C (stereo partly drawn) [Example 242, 5,7-difluoro-N-((1S,2R)-2-(6-fluoro-2,3-dimethylphenyl)-1-(5-oxo-4,5-dihydro-1,3,4-oxadiazol-2-yl)propyl)-4-hydroxychroman-8-sulfonamide]
14 | 40 | Cc1ccc(F)c([C@@H](C)[C@H](NS(=O)(=O)c2ncc(Cl)cc2C(N)=O)c2n[nH]c(=O)o2)c1C [Example 245, 5-chloro-2-(N-((1S,2R)-2-(6-fluoro-2,3-dimethylphenyl)-1-(5-oxo-4,5-dihydro-1,3,4-oxadiazol-2-yl)propyl)sulfamoyl)nicotinamide]
15 | 500 | Cc1ccc(F)c([C@@H](C)[C@H](NS(=O)(=O)c2ccc(Cl)cc2C(=O)N(C)C)c2n[nH]c(=O)o2)c1C [Example 246, 5-chloro-2-(N-((1S,2R)-2-(6-fluoro-2,3-dimethylphenyl)-1-(5-oxo-4,5-dihydro-1,3,4-oxadiazol-2-yl)propyl)sulfamoyl)-N,N-dimethylbenzamide]
16 | 410 | Cc1ccc(F)c([C@@H](C)[C@H](NS(=O)(=O)c2ccc(Cl)cc2C(=O)N2CCC2)c2n[nH]c(=O)o2)c1C [Example 247, 2-(azetidine-1-carbonyl)-4-chloro-N-((1S,2R)-2-(6-fluoro-2,3-dimethylphenyl)-1-(5-oxo-4,5-dihydro-1,3,4-oxadiazol-2-yl)propyl)benzenesulfonamide]
17 | 270 | Cc1ccc(F)c([C@@H](C)[C@H](NS(=O)(=O)c2ccc(Cl)cc2C(=O)NCCO)c2n[nH]c(=O)o2)c1C [Example 248, 5-chloro-2-(N-((1S,2R)-2-(6-fluoro-2,3-dimethylphenyl)-1-(5-oxo-4,5-dihydro-1,3,4-oxadiazol-2-yl)propyl)sulfamoyl)-N-(2-hydroxyethyl)benzamide]
18 | 100 | Cc1c(Cl)ccc(F)c1[C@@H](C)[C@H](NS(=O)(=O)c1ncc(Cl)cc1C(N)=O)c1n[nH]c(=O)o1 [Example 249, 5-chloro-2-(N-((1S,2R)-2-(3-chloro-6-fluoro-2-methylphenyl)-1-(5-oxo-4,5-dihydro-1,3,4-oxadiazol-2-yl)propyl)sulfamoyl)nitotinamide]
19 | 20 | Cc1ccc(F)c([C@@H](C)[C@H](NS(=O)(=O)c2ncc(Br)cc2C(N)=O)c2n[nH]c(=O)o2)c1C [Example 250, 5-bromo-2-(N-((1S,2R)-2-(6-fluoro-2,3-dimethylphenyl)-1-(5-oxo-4,5-dihydro-1,3,4-oxadiazol-2-yl)propyl)sulfamoyl)nicotinamide]
20 | 250 | CNC(=O)c1cc(Br)cnc1S(=O)(=O)N[C@H](c1n[nH]c(=O)o1)[C@H](C)c1c(F)ccc(C)c1C [Example 251, 5-bromo-2-(N-((1S,2R)-2-(6-fluoro-2,3-dimethylphenyl)-1-(5-oxo-4,5-dihydro-1,3,4-oxadiazol-2-yl)propyl)sulfamoyl)-N-methylnicotinamide]
21 | 60 | CNC(=O)c1nc(S(=O)(=O)N[C@H](c2n[nH]c(=O)o2)[C@H](C)c2c(F)ccc(C)c2C)ccc1Cl [Example 252, 3-chloro-6-(N-((1S,2R)-2-(6-fluoro-2,3-dimethylphenyl)-1-(5-oxo-4,5-dihydro-1,3,4-oxadiazol-2-yl)propyl)sulfamoyl)-N-methylpicolinamide]
22 | 80 | Cc1ccc(F)c([C@@H](C)[C@H](NS(=O)(=O)c2ccc(Cl)c(C(=O)N(C)C)n2)c2n[nH]c(=O)o2)c1C [Example 253, 3-chloro-6-(N-((1S,2R)-2-(6-fluoro-2,3-dimethylphenyl)-1-(5-oxo-4,5-dihydro-1,3,4-oxadiazol-2-yl)propyl)sulfamoyl)-N,N-dimethylpicolinamide]
23 | 70 | Cc1c(Cl)ccc(F)c1[C@@H](C)[C@H](NS(=O)(=O)c1ncc(Br)cc1C(N)=O)c1n[nH]c(=O)o1 [Example 254, 5-bromo-2-(N-((1S,2R)-2-(3-chloro-6-fluoro-2-methylphenyl)-1-(5-oxo-4,5-dihydro-1,3,4-oxadiazol-2-yl)propyl)sulfamoyl)nicotinamide]
